# Measured values as given in patent publication US20180284123A1, “BARCODED RAPID ASSAY PLATFORM USEFUL FOR EFFICIENT ANALYSIS OF CANDIDATE MOLECULES AND METHODS OF MAKING AND USING THE PLATFORM” (California Institute of Technology, priority 2017, published 2018).
# How the values were obtained:
# KRAS [1] = target: T1, KRAS (Homo sapiens, UniProt P01116); experiment: Barcoded rapid assay microchip binding curves of FIG. 6A/6B; conditions: fitted curves of FIG. 6B, Hill coefficient set to 1, triplicate
# T1 construct: His6-tagged human KRas Isoform 4B (residues 1-169); His6; made in house; host or cells: E. coli BL21(DE3), PQE80 vector
# T1 sequence (P01116 1-169 isoform P01116-2): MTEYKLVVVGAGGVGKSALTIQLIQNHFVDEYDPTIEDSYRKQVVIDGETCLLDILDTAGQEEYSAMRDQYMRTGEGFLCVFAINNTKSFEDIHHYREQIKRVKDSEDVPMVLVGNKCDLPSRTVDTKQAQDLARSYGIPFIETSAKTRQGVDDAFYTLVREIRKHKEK
# Description: FIG. 6A is a picture of a barcoded rapid assay microchip (60) following its use for binding curve assays of KRAS to candidate ligands. […] EC50 binding curves of 15 candidate ligands were simultaneously generated against the target protein KRAS. Each microwell (ovals) represents a distinct concentration of KRAS that was added (values are given above each well). All 15 candidate ligands were measured in triplicate in each microwell.
# FIG. 6B is a graph of the EC50 binding curves generated from the barcoded rapid assay microchip of FIG. 6A. Images of the barcoded rapid assay microchip were digitized using a fluorescence image scanner and plotted as binding curves (61) for each of the candidate ligands. All binding curves were fitted to Hill functions, with the Hill coefficient set to 1.
# A series of peptide ligands that were identified as candidate binders to the protein KRas, using known literature methods, were prepared according to the methods of FIG. 3, and assembled into the individual microwells of the barcoded rapid assay microchip as illustrated in FIG. 4. […] Fluorescence imaging of the individual wells was then used to generate a fluorescence intensity, vs KRAS concentration, for each of the individual candidate ligands. […]
# KRAS [2] = target: T1, KRAS; experiment: B-RAP surface immunofluorescent assay, PCC ligand KRas EC50; format: binding; conditions: for Avg F635, Full Centroid / Avg F635, Full Lane / avg F635, Left Part Centroid / avg F635, Middle Part Centroid / avg F635, Right Part Centroid: 10 μM KRas well of plate #1, pixel by pixel; for avg F635, Left Part Centroid: left part of centroid; for avg F635, Middle Part Centroid: middle part of centroid; for avg F635, Right Part Centroid: right part of centroid; for EC50: 13-point KRas concentration series, each point in decaplicate, Hill coefficient=1
# Description: The barcode patterned microchip surface was partitioned into 16 individual microwells using a pre-fabricated PDMS slab. Individual biotinylated PCC candidates were complexed to specific SAC-DNA conjugates, combined into a cocktail, and then self-assembled, via DNA hybridization, onto designated barcode stripes (FIGS. 2-4). Incubation with a specific concentration of the target protein preceded incubation with a primary capture antibody and then a fluorophore-conjugated secondary detection antibody. During assay execution, each well represents a different target concentration or assay condition. Once developed, the fluorescence of the barcodes is digitized using a GenePix 4400A array scanner, with an excitation laser power optimized to a power level of 40% (60 W), which maximizes detection sensitivity while also minimizing signal saturation. Data extraction occurs using 10 μm radius circles, taken along the length of a barcode stripe. A fluorescence signal representing the average of all the pixels within a given circle is collected. A total of ten circles (data-blocks) are measured along a 180 μm span of the middle portion for each individual barcode lane in a given well. 10 μM KRas protein gave an average F635 of 47,868.7, with a standard deviation of 4154.53. 1 μM KRas protein gave an average F635 of 11437.6, with a standard deviation of 1602.202. 100 nM KRas protein gave an average F635 of 1780.6, with a standard deviation of 236.38. This illustrates the intensity across a stripe compared to the intensity from the data-block extraction. After extraction the data is background corrected. The background signal arises from (a) non-specific binding of the primary and secondary antibodies (independent of [KRas]), but can vary across different barcode stripes), and (b) non-specific binding of KRas protein ([KRas] dependent). Background (a) was assessed by measuring the average signal in the null protein well for each stripe. Background (b) was assessed by measuring the average fluorescence for the dummy ligand (Biotin* probe) that was in each well. The background subtracted data was then graphed in Graphpad Prism 7 and fitted to a sigmoidal curve (Hill coefficient=1).
# Measurement of PCC Ligand KRas EC50 with the Barcode Rapid Assay Platform
# Protein Incubation Buffer: Tris-buffered saline (TBS)+0.05% Tween20 (TBST)
# A pre-fabricated PDMS template was aligned onto the DNA barcode microchip, and the microchip was taped into a 10 cm petri dish. The wells on the platform were wet with 50 μL PBST before filling with blocking buffer and placing into a 37° C. incubator for 1 hr. Concurrently, 40 μL 1% BSA in PBS solutions containing 750 nM of a SAC-DNA conjugate and 3.75 μM of one biotinylated PCC ligand or biotin-A20-Cy3 blank were prepared for each SAC-DNA conjugate. The biotinylated ligands were allowed to complex with the SAC protein for one hour before pooling the SAC-DNA-ligand solutions (final [SAC-DNA-ligand conjugates]=50 nM). The blocking buffer was aspirated and each well was loaded with the SAC-DNA-ligand conjugates cocktail for hybridization with the DNA barcode at 37° C. for one hour. The wells were washed with PBST (3×) before loading serially diluted solutions of KRas protein in protein buffer (0 to 400 μM). After shaking at RT for one hour, the wells were rinsed with PBST (5×), making sure to pipet up/down with the first addition of PB ST. A (100:1) dilution of CST rabbit anti-Ras Ab (#39655) in 1° ab buffer was added to each well before shaking at RT for one hour. After rinsing the wells with PBST (3×), the wells were loaded with a (200:1) dilution of Abcam goat anti-rabbit-Alexafluor 647 linked ab (ab150079) in 2° ab buffer before shaking at RT for one hour. A final rinse of the wells with PBST (3×) proceeded peeling off the PDMS slab from the barcode microchip and dipping the barcode into the following solutions: PBS, (1:1) PBS: MQ H2O, MQ H2O (2×). […]
# KRAS [3] = target: T1, KRAS; experiment: Multi-well ELISA, PCC ligand KRas EC50; format: binding; conditions: triplicate, KRas 0→300 μM, Hill coefficient=1
# Description: Measurement of PCC Ligand KRas EC50 Using the Multi-Well ELISA Technology
# A 96-well Pierce Neutravidin Plate was washed with binding buffer (3×5 minutes at RT) before loading plate with a 1 μM solution of either blank (biotin-PEG5-NHAc) (singly) or biotinylated PCC ligand (in triplicate). The plate incubated for two hours before washing with binding buffer (3×5 minutes). Blocking buffer was added to each well and the plate blocked for one hour before undergoing washing with binding buffer (3×5 minutes). Each well was loaded with either binding buffer or KRas solution (0→300 μM), and the plate was incubated for 30 minutes. Plate washing with binding buffer (3×5 minutes) preceded incubating the plate with a (1000:1) dilution of 1° antibody (ab) rabbit anti-Ras (CST #3965) in ab buffer for thirty minutes. The plate was washed with binding buffer (3×5 minutes), loaded with a (2000:1) dilution of 2° ab goat anti-rabbit, HRP-linked ab (CST #7074) in ab buffer, and incubated for an additional thirty minutes. […] After quenching the enzymatic reaction with 1M H2SO4(aq) (100 μL) the plate was read at λ=450 nm within ten minutes. The data was double background corrected using the ab only absorbance and the dummy ligand absorbance, plotted using Prism GraphPad 7 (Sigmoidal 4PL mode with the Hill coefficient set=1), and an EC50 value was calculated.
EC50 (KRAS [1]),"Avg F635, Full Centroid (KRAS [2])","Avg F635, Full Lane (KRAS [2])","avg F635, Left Part Centroid (KRAS [2])","avg F635, Middle Part Centroid (KRAS [2])","avg F635, Right Part Centroid (KRAS [2])",EC50 (KRAS [2]),EC50 (KRAS [3]),SMILES
6.55 µM,18391,16612,14966,20262,20045,5.43 ± 1 µM,2180 ± 2700 nM,"NC(=O)CC[C@@H]1NC(=O)[C@@H](N)Cc2cn(nn2)CCCC[C@@H](C(=O)NCCOCCOCCOCCOCCOCCC(=O)NCCNC(=O)CCCC[C@@H]2SC[C@@H]3NC(=O)N[C@@H]32)NC(=O)[C@H](Cc2ccc(O)cc2)NC(=O)[C@H](Cc2ccccc2)NC(=O)[C@H](CC(N)=O)NC(=O)[C@H](CC(=O)O)NC1=O (single isomer, unassigned) [Ligand L9a, QDNFY]"
6.29 µM,45500,41812,39380,47791,49508,3.86 ± 0.57 µM,3000 ± 4900 nM,"NC(=O)CC[C@@H]1NC(=O)[C@@H](N)Cc2cn(nn2)CCCC[C@@H](C(=O)NCCOCCOCCOCCOCCOCCC(=O)NCCNC(=O)CCCC[C@@H]2SC[C@@H]3NC(=O)N[C@@H]32)NC(=O)[C@H](Cc2ccc(O)cc2)NC(=O)[C@H](Cc2ccccc2)NC(=O)[C@H](CC(N)=O)NC(=O)[C@H](CC(=O)O)NC1=O (single isomer, unassigned) [Ligand L9b, QDNFY]"
